# Assay results from patent US4161520A, “Method of treating hypertension” (priority 1976, dated 1979).
# Assays:
# DOCA Na hypertensive rat = assay: Antihypertensive activity, subacute oral dosing in the DOCA Na rat (Example 1, Table I); assay type: in vivo
# Experimental: A test was conducted for antihypertensive activity in the DOCA Na rat. DOCA rats weighing 170 to 210 grams are used in the test. DOCA Na hypertension is induced by unilateral nephrectomy followed by subcutaneous implantation of a 25 mg. desoxycorticosterone (DOCA) pellet. Animals are placed in individual cages receiving 0.9% sodium chloride solution to drink and rat chow diet ad libitum. Two weeks are allowed to elapse from the time of surgery for development of hypertension, i.e., systolic blood pressure of at least 150 mmHg.
# Systolic blood pressure and heart rate are measured indirectly from the tail pressure pulse of unanesthetized rats, using a pneumatic pulse transducer. Control readings are taken prior to drug and post drug readings are taken at 1, 3, 6 and 24 hours.
# The experimental results are represented as absolute values. Drug-related alterations in systolic blood pressure are expressed as percentage change by comparing control absolute values with post drug absolute values. Compounds are considered active when about a 15% or greater reduction in blood pressure is obtained. However, the reduction in blood pressure must show mathematical significance ([…]).
# A derivative of the polyether ionophore, lasalocid, i.e., the bromo derivative of lasalocid, was tested in the above screen. The compound was orally administered for a five-day period by intubation and thereafter dosing was discontinued but blood pressure monitoring was continued. The following table illustrates the results obtained utilizing bromolasalocid as the test drug.
# [1] = Oral (per os) toxicity (LD50); assay type: in vivo; conditions: in vivo, read-out: LD50
compound,measurement,setting,value
CC[C@@H](C(=O)[C@@H](C)[C@@H](O)[C@H](C)CCc1c(Br)cc(C)c(O)c1C(=O)O)[C@H]1O[C@](CC)([C@H]2CC[C@](O)(CC)[C@H](C)O2)C[C@@H]1C [bromolasalocid],Average Systolic Blood Pressure Per Group,"DOCA Na hypertensive rat; 5 mg/kg per day oral for 5 days, Day 2 am, pre-drug 209",206 mmHg
same,Average Systolic Blood Pressure Per Group,"DOCA Na hypertensive rat; 5 mg/kg per day oral for 5 days, Day 2 pm, pre-drug 209",194 mmHg
same,Average Systolic Blood Pressure Per Group,"DOCA Na hypertensive rat; 5 mg/kg per day oral for 5 days, Day 3 pm, pre-drug 209",191 mmHg
same,Average Systolic Blood Pressure Per Group,"DOCA Na hypertensive rat; 5 mg/kg per day oral for 5 days, Day 4 am, pre-drug 209",206 mmHg
same,Average Systolic Blood Pressure Per Group,"DOCA Na hypertensive rat; 5 mg/kg per day oral for 5 days, Day 5 am, pre-drug 209",197 mmHg
same,Average Systolic Blood Pressure Per Group,"DOCA Na hypertensive rat; 5 mg/kg per day oral for 5 days, Day 5 pm, pre-drug 209",196 mmHg
same,Average Systolic Blood Pressure Per Group,"DOCA Na hypertensive rat; 10 mg/kg per day oral for 5 days, Day 1 pm, pre-drug 217, p<.05",192 mmHg
same,Average Systolic Blood Pressure Per Group,"DOCA Na hypertensive rat; 10 mg/kg per day oral for 5 days, Day 2 am, pre-drug 217, p<.05",181 mmHg
same,Average Systolic Blood Pressure Per Group,"DOCA Na hypertensive rat; 10 mg/kg per day oral for 5 days, Day 2 pm, pre-drug 217, p<.05",166 mmHg
same,Average Systolic Blood Pressure Per Group,"DOCA Na hypertensive rat; 10 mg/kg per day oral for 5 days, Day 3 am, pre-drug 217, p<.05",171 mmHg
same,Average Systolic Blood Pressure Per Group,"DOCA Na hypertensive rat; 10 mg/kg per day oral for 5 days, Day 3 pm, pre-drug 217, p<.05",163 mmHg
same,Average Systolic Blood Pressure Per Group,"DOCA Na hypertensive rat; 10 mg/kg per day oral for 5 days, Day 4 am, pre-drug 217, p<.05",173 mmHg
same,Average Systolic Blood Pressure Per Group,"DOCA Na hypertensive rat; 10 mg/kg per day oral for 5 days, Day 4 pm, pre-drug 217, p<.05",157 mmHg
same,Average Systolic Blood Pressure Per Group,"DOCA Na hypertensive rat; 10 mg/kg per day oral for 5 days, Day 5 pm, pre-drug 217, p<.05",166 mmHg
same,Period for which blood pressure remained below control after drug dosing,DOCA Na hypertensive rat; after oral dosing for the first five consecutive days,10 days
same,LD50,[1],1200 mg/kg
